target: CSF-1R (Homo sapiens, UniProt P07333); test: Peptide (non-phosphorylated) assay, fluorescence polarization competition immunoassay; assay type: biochemical; details: 0.7 nM CSF-1R, 308 μM SYEGNSYTFIDPTQ peptide, 1 mM ATP, 80 min; mean of at least three determinations; read-out: c-fms Peptide IC50
Procedure: The kinase reaction was initiated by adding 1 μL of 10 mM ATP in assay buffer. […] Positive and negative control wells were included on each plate, where 4% DMSO in assay buffer was substituted for the compound; in addition, positive control wells received 1.2 μL of 50 mM EDTA before the start of the reaction.
The plates were covered and incubated at room temperature for 80 min. Reactions were stopped by addition of 1.2 μL of 50 mM EDTA. Each well then received 10 μL of a 1:1:3 mixture of 10× anti-phosphotyrosine antibody, 10×PTK green tracer, and FP dilution buffer, respectively (Cat. # P2837, Invitrogen, Carlsbad, Calif.). The plates were covered, incubated for 30 min at room temperature, and the fluorescence polarization was read on an Analyst plate reader (Molecular Devices).

Sequence of CSF-1R (P07333 20-972): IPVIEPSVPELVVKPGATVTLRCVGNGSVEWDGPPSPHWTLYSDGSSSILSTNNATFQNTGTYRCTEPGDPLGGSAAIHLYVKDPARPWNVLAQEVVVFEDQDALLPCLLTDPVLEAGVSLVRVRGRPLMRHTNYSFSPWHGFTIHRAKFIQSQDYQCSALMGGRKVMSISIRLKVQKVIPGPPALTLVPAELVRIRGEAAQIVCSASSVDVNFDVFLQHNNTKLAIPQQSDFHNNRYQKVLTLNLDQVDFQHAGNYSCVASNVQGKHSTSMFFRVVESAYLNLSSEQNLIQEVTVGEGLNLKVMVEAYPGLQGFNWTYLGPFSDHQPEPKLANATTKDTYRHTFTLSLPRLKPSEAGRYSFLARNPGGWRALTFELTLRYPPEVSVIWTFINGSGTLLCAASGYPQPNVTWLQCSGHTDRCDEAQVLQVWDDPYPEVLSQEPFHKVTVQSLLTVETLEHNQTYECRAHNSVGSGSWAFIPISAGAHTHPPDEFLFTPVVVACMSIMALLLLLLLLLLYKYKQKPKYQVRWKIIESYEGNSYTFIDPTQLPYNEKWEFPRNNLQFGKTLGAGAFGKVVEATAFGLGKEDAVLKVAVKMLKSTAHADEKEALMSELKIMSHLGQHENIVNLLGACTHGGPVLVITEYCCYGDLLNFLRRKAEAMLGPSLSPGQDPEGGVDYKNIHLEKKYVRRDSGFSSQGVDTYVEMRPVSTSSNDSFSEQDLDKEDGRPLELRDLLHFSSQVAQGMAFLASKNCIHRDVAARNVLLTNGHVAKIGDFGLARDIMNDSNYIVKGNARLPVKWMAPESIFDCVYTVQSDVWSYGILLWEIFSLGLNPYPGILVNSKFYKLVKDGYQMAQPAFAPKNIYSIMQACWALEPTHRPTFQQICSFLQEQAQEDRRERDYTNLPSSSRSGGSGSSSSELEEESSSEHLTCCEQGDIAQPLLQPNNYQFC

For `C#Cc1ccc(-n2cc(C(N)=O)c(=O)c3cnc(Nc4ccc(CCN5CCN(C)CC5)cc4)nc32)cc1` [Cpd 30, 8-(4-ethynyl-phenyl)-2-{4-[2-(4-methyl-piperazin-1-yl)-ethyl]-phenylamino}-5-oxo-5,8-dihydro-pyrido[2,3-d]pyrimidine-6-carboxylic acid amide], which IC50 is on record?
The IC50 was 14 nM.

For `C#Cc1ccc(-n2cc(C(=O)NOC)c(=O)c3cnc(Nc4ccc(CCN5CCN(C)CC5)cc4)nc32)cc1` [Cpd 31, 8-(4-ethynyl-phenyl)-2-{4-[2-(4-methyl-piperazin-1-yl)-ethyl]-phenylamino}-5-oxo-5,8-dihydro-pyrido[2,3-d]pyrimidine-6-carboxylic acid methoxy-amide], which IC50 is on record?
Its IC50 is 2.6 nM.

`C#Cc1ccc(-n2cc(C(=O)NOC)c(=O)c3cnc(Nc4ccc(CCN5CCCC5)cc4)nc32)cc1` [Cpd 32, 8-(4-ethynyl-phenyl)-5-oxo-2-[4-(2-pyrrolidin-1-yl-ethyl)-phenylamino]-5,8-dihydro-pyrido[2,3-d]pyrimidine-6-carboxylic acid methoxy-amide] was tested. Which IC50 did it give?
Its IC50 is 3.7 nM.

`CN1CCN(CCc2ccc(Nc3ncc4c(=O)c(C(N)=O)cn(-c5ccc(Cl)cc5)c4n3)cc2)CC1` [Cpd 33, 8-(4-chloro-phenyl)-2-{4-[2-(4-methyl-piperazin-1-yl)-ethyl]-phenylamino}-5-oxo-5,8-dihydro-pyrido[2,3-d]pyrimidine-6-carboxylic acid amide] was tested. Which IC50 did it give?
Its IC50 is 20 nM.

With `CONC(=O)c1cn(-c2ccc(Cl)cc2)c2nc(Nc3ccc(CCN4CCN(C)CC4)cc3)ncc2c1=O` [Cpd 34, 8-(4-chloro-phenyl)-2-{4-[2-(4-methyl-piperazin-1-yl)-ethyl]-phenylamino}-5-oxo-5,8-dihydro-pyrido[2,3-d]pyrimidine-6-carboxylic acid methoxy-amide] as the molecule, how does the IC50 read?
The IC50 was 3.8 nM.

Which IC50 does the source give for `CONC(=O)c1cn(C2CCCC2)c2nc(Nc3ccc(N4CCCC4)cc3)ncc2c1=O` [Cpd 35, 8-cyclopentyl-5-oxo-2-(4-pyrrolidin-1-yl-phenylamino)-5,8-dihydro-pyrido[2,3-d]pyrimidine-6-carboxylic acid methoxy-amide] here?
The IC50 was 2.2 nM.

`CONC(=O)c1cn(C2CCCC2)c2nc(Nc3ccc(C(=O)N4CCCC4)cc3)ncc2c1=O` [Cpd 36, 8-cyclopentyl-5-oxo-2-[4-(pyrrolidine-1-carbonyl)-phenylamino]-5,8-dihydro-pyrido[2,3-d]pyrimidine-6-carboxylic acid methoxy-amide] was tested. Which IC50 did it give?
The IC50 was 2.1 nM.

`CONC(=O)c1cn(C2CCCC2)c2nc(Nc3ccc(CN4CCCC4=O)cc3)ncc2c1=O` [Cpd 37, 8-cyclopentyl-5-oxo-2-[4-(2-oxo-pyrrolidin-1-ylmethyl)-phenylamino]-5,8-dihydro-pyrido[2,3-d]pyrimidine-6-carboxylic acid methoxy-amide] was tested. Which IC50 did it give?
Its IC50 is 1.5 nM.

For `CONC(=O)c1cn(C2CCCC2)c2nc(Nc3ccc(CCN4CCCC4=O)cc3)ncc2c1=O` [Cpd 38, 8-cyclopentyl-5-oxo-2-{4-[2-(2-oxo-pyrrolidin-1-yl)-ethyl]-phenylamino}-5,8-dihydro-pyrido[2,3-d]pyrimidine-6-carboxylic acid methoxy-amide], which IC50 is on record?
Its IC50 is 2 nM.

For `CONC(=O)c1cn(C2CCCC2)c2nc(Nc3ccc(CCN4CCCC4)cc3)ncc2c1=O` [Cpd 39, 8-cyclopentyl-5-oxo-2-[4-(2-pyrrolidin-1-yl-ethyl)-phenylamino]-5,8-dihydro-pyrido[2,3-d]pyrimidine-6-carboxylic acid methoxy-amide], which IC50 is on record?
The IC50 was 1.1 nM.

With `CCONC(=O)c1cn(C2CCCC2)c2nc(Nc3ccc(CCN4CCCC4)cc3)ncc2c1=O` [Cpd 40, 8-cyclopentyl-5-oxo-2-[4-(2-pyrrolidin-1-yl-ethyl)-phenylamino]-5,8-dihydro-pyrido[2,3-d]pyrimidine-6-carboxylic acid ethoxy-amide] as the molecule, how does the IC50 read?
Its IC50 is 6.8 nM.

Which IC50 does the source give for `CC(C)ONC(=O)c1cn(C2CCCC2)c2nc(Nc3ccc(CCN4CCCC4)cc3)ncc2c1=O` [Cpd 41, 8-cyclopentyl-5-oxo-2-[4-(2-pyrrolidin-1-yl-ethyl)-phenylamino]-5,8-dihydro-pyrido[2,3-d]pyrimidine-6-carboxylic acid isopropoxy-amide] here?
The IC50 was 4.1 nM.

How did the IC50 turn out when `O=C(c1cn(C2CCCC2)c2nc(Nc3ccc(CCN4CCCC4)cc3)ncc2c1=O)N1CCOCC1` [Cpd 42, 8-cyclopentyl-6-(morpholine-4-carbonyl)-2-[4-(2-pyrrolidin-1-yl-ethyl)-phenylamino]-8H-pyrido[2,3-d]pyrimidin-5-one] was run?
The IC50 was 57 nM.

With `O=C(NCCO)c1cn(C2CCCC2)c2nc(Nc3ccc(CCN4CCCC4)cc3)ncc2c1=O` [Cpd 43, 8-cyclopentyl-5-oxo-2-[4-(2-pyrrolidin-1-yl-ethyl)-phenylamino]-5,8-dihydro-pyrido[2,3-d]pyrimidine-6-carboxylic acid (2-hydroxy-ethyl)-amide] as the molecule, how does the IC50 read?
The IC50 was 31 nM.

Which IC50 does the source give for `NCCNC(=O)c1cn(C2CCCC2)c2nc(Nc3ccc(CCN4CCCC4)cc3)ncc2c1=O` [Cpd 44, 8-cyclopentyl-5-oxo-2-[4-(2-pyrrolidin-1-yl-ethyl)-phenylamino]-5,8-dihydro-pyrido[2,3-d]pyrimidine-6-carboxylic acid (2-amino-ethyl)-amide] here?
The IC50 was 110 nM.

For `CONC(=O)c1cn(C2CCCC2)c2nc(Nc3ccc(C4CCNCC4)cc3)ncc2c1=O` [Cpd 45, 8-cyclopentyl-5-oxo-2-(4-piperidin-4-yl-phenylamino)-5,8-dihydro-pyrido[2,3-d]pyrimidine-6-carboxylic acid methoxy-amide], which IC50 is on record?
Its IC50 is 1.9 nM.

For `CONC(=O)c1cn(C2CCCC2)c2nc(Nc3ccc(C4CCN(C(C)=O)CC4)cc3)ncc2c1=O` [Cpd 46, 2-[4-(1-acetyl-piperidin-4-yl)-phenylamino]-8-cyclopentyl-5-oxo-5,8-dihydro-pyrido[2,3-d]pyrimidine-6-carboxylic acid methoxy-amide], which IC50 is on record?
Its IC50 is 2.6 nM.

`CCONC(=O)c1cn(C2CCCC2)c2nc(Nc3ccc(C4CCN(C(C)=O)CC4)cc3)ncc2c1=O` [Cpd 47, 2-[4-(1-acetyl-piperidin-4-yl)-phenylamino]-8-cyclopentyl-5-oxo-5,8-dihydro-pyrido[2,3-d]pyrimidine-6-carboxylic acid ethoxy-amide] was tested. Which IC50 did it give?
The IC50 was 1.9 nM.

How did the IC50 turn out when `CONC(=O)c1cn(C2CCCC2)c2nc(Nc3ccc(CCN4CCN(C)CC4)cc3)ncc2c1=O` [Cpd 48, 8-cyclopentyl-2-{4-[2-(4-methyl-piperazin-1-yl)-ethyl]-phenylamino}-5-oxo-5,8-dihydro-pyrido[2,3-d]pyrimidine-6-carboxylic acid methoxy-amide] was run?
Its IC50 is 1.5 nM.

Which IC50 does the source give for `CCONC(=O)c1cn(C2CCCC2)c2nc(Nc3ccc(CCN4CCN(C)CC4)cc3)ncc2c1=O` [Cpd 49, 8-cyclopentyl-2-{4-[2-(4-methyl-piperazin-1-yl)-ethyl]-phenylamino}-5-oxo-5,8-dihydro-pyrido[2,3-d]pyrimidine-6-carboxylic acid ethoxy-amide] here?
Its IC50 is 1.7 nM.

How did the IC50 turn out when `CONC(=O)c1cn(-c2ccc(C)c(C)c2)c2nc(Nc3ccc(CCN4CCCC4=O)cc3)ncc2c1=O` [Cpd 50, 8-(3,4-dimethyl-phenyl)-5-oxo-2-{4-[2-(2-oxo-pyrrolidin-1-yl)-ethyl]-phenylamino}-5,8-dihydro-pyrido[2,3-d]pyrimidine-6-carboxylic acid methoxy-amide] was run?
The IC50 was 1.2 nM.

Which IC50 does the source give for `CONC(=O)c1cn(-c2ccc(C)c(C)c2)c2nc(Nc3ccc(CCN4CCCC4)cc3)ncc2c1=O` [Cpd 51, 8-(3,4-dimethyl-phenyl)-5-oxo-2-[4-(2-pyrrolidin-1-yl-ethyl)-phenylamino]-5,8-dihydro-pyrido[2,3-d]pyrimidine-6-carboxylic acid methoxy-amide] here?
Its IC50 is 0.63 nM.

Source: US20080114007A1 (priority 2006, published 2008)
